Series [1] can be described thus: Corrector activity of Z variant alpha1-antitrypsin misfolding (unknown origin) assessed as inhibition of Z variant alpha1-antitrypsin polymerisation by TR-FRET assay. Details: species or system Homo sapiens. (In general: TR-FRET usually uses a lanthanide donor and a delayed reading to cut background.)
Series [2] can be described thus: Kinetic solubility of compound. In kind it is physicochemical. Conditions: read-out: Kinetic_solubility.
The nature of series [3]: Corrector activity of Z variant alpha1-antitrypsin misfolding (unknown origin) expressed in CHO cells assessed as inhibition of Z variant alpha1-antitrypsin polymerisation. In kind it is cell-based, Homo sapiens.
Series [4] can be described thus: Metabolic stability in human hepatocytes assessed as intrinsic clearance measured per gm of tissue. In kind it is ADME, cell-based, Hepatocyte.
A short description of series [5]: Lipophilicity, log D of compound by chromatographic method. In kind it is physicochemical.
The nature of series [6]: Corrector activity of Z variant alpha1-antitrypsin misfolding (unknown origin) expressed in CHO cells assessed as inhibition of Z variant alpha1-antitrypsin polymerisation by measuring increase in Z alpha1 antitrypsin secretion. In kind it is cell-based.
The nature of series [7]: Protein binding in rat plasma. In kind it is ADME, cell-free. Conditions: read-out: PPB (converted).
A short description of series [8]: Binding affinity to Z variant alpha1-antitrypsin (unknown origin) by competition binding assay. Details: species or system Homo sapiens.
Series [9] is described as follows: Volume of distribution in Wistar Han rat at 1 mg/kg, iv. In kind it is ADME, organism-based. The note with it: in vivo.
The nature of series [10]: Protein binding in human blood. In kind it is ADME, tissue-based. Conditions: read-out: PB.
The nature of series [11]: Elimination half life in Wistar Han rat at 1 mg/kg, iv. In kind it is ADME, organism-based. The note with it: in vivo, read-out: beta t1/2 (converted).
The nature of series [12]: Clearance in rat hepatocytes measured per gm of tissue. In kind it is ADME, cell-based, Hepatocyte.
Series [13] in a line: Clearance in Wistar Han rat blood at 1 mg/kg, iv. In kind it is ADME, organism-based.
Series [14] is described as follows: Protein binding in human plasma. In kind it is ADME, cell-free. The note with it: read-out: PPB.
The next series addresses Albumin (Homo sapiens, UniProt P02768). Briefly: Binding affinity to human serum albumin. In kind it is ADME. Conditions: isolated protein.

Values after ≈ are worked out from the molar mass of the structure shown.

Chain of Albumin (P02768 whole entry): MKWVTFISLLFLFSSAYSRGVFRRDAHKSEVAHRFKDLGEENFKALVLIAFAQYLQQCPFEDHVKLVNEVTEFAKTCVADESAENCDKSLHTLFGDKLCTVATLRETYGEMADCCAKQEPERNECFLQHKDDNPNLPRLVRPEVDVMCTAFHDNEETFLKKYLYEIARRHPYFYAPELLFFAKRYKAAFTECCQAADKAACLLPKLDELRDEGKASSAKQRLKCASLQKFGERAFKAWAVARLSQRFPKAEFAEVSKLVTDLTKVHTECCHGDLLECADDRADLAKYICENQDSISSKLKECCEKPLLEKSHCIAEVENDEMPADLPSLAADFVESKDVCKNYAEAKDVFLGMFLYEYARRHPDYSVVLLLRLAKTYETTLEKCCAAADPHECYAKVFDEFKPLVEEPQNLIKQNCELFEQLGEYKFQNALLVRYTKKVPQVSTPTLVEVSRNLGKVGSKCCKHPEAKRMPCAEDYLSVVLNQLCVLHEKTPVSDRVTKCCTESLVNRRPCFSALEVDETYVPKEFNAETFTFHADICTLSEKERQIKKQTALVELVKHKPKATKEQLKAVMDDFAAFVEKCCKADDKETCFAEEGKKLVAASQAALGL

As a reminder, the pIC50 is the negative decadic logarithm of the IC50, by convention in mol/L. The term chromatographic logD denotes lipophilicity estimated from chromatographic retention. A low value points to lower lipophilicity. Consider `CCC[C@@H](NC(=O)c1cccc2c1CC(=O)N2)[C@@H](O)c1ccccc1Cl`, for which the pIC50 is on record as 8.1 in series [1] and 5.7 in series [3]. For the same molecule, the solubility kinetic in [2] was not below 356 µM. Also, the CLH in series [4] was 0.4 mL/min/g. This molecule also showed a chromatographic logD in series [5] of 3.6.
For `CCC[C@@H](NC(=O)c1ccnc2c1CC(=O)N2)[C@@H](O)c1cccc(Cl)c1C` the same measures were 8.1, 5.9, not below 314 µM, 0.9 mL/min/g and 3.9.
For `CCC[C@@H](NC(=O)c1cccc2c1CC(=O)N2)[C@@H](O)c1ccccc1C(F)(F)F` the same measures were 7.3, 4.9, not below 420 µM, 0.2 mL/min/g and 3.7.
As to `CCC[C@@H](NC(=O)c1ccc2cc[nH]c2c1)[C@@H](O)c1ccccc1`, the pIC50 was determined as 6.5 in series [1] and 4.5 in series [3]. In series [2], the solubility kinetic was not below 439 µM. For the same molecule, the chromatographic logD in series [5] worked out at 4.3.
With `CCC[C@@H](NC(=O)c1cccc2c1CC(=O)N2)[C@@H](O)c1ncccc1C`, the pIC50 was 6.6 in [1] and 4.4 in [3]. The solubility kinetic in series [2] is not below 392 µM. In series [5], this molecule yielded a chromatographic logD of 3.2.
For `CCC[C@@H](NC(=O)c1cncc2[nH]c(=O)[nH]c12)[C@@H](O)c1cccc(Cl)c1C` the same measures were 7.4, 4.2, not below 227 µM and 3.4.
On to `CCC[C@H](NC(=O)c1ccc2cc[nH]c2c1)[C@H](O)c1ccccc1`, for which, in series [1], the pIC50 is on record as less than 4.
For the molecule `CCC[C@@H](NC(=O)c1cccc2c1CC(=O)N2)[C@@H](O)c1ccccc1C`, the pIC50 in series [1] was determined as 8.3; in series [3], 5.6. Also, the solubility kinetic in series [2] was not below 395 µM. Further, the CLH in series [4] stood at 0.3 mL/min/g. The chromatographic logD in [5] amounted to 3.4.
For `CCC[C@@H](NC(=O)c1ccc2cc[nH]c2c1)[C@H](O)c1ccccc1`, the pIC50 in series [1] was found to be 5.5.
Regarding `CCC[C@@H](NC(=O)c1cccc2c1NC(=O)C2)[C@@H](O)c1cccc(Cl)c1C`, the pIC50 in series [1] stood at 8.6; in series [3] it was 6.3. Further, the solubility kinetic in [2] came out at 128 µM (≈ 49.5 µg/mL). The CLH in series [4] came out at 3.7 mL/min/g. In series [5], this molecule showed a chromatographic logD of 5.2.
As usually defined, the IC50 is the midpoint of a concentration-inhibition curve. As to `CCCC(NC(=O)c1ccc2cc[nH]c2c1)C(O)c1ccccc1` (stereo unspecified), in [1], the IC50 is 0.3 µM and the pIC50 is on record as 6.5.
For orientation: EC50 means the midpoint of the concentration-response curve. A word on the pKd: it is the negative decadic logarithm of the Kd, by convention in mol/L. Higher therefore signals a low Kd. The term Vd denotes a proportionality between amount in the body and measured concentration, not a real space. High values mean wide distribution into tissue, low ones little distribution into tissue. A word on the clearance: it is the rate of elimination divided by the concentration. Read a high clearance as efficient removal. For `CCC[C@@H](NC(=O)c1cccc2c1CC(=O)N2)[C@@H](O)c1cccc(F)c1C`, the EC50 in [6] is 0.631 µM. The fraction unbound is 0.19 in [7], less than 0.02 in [10] and less than 0.02 in series [14]. The values for the pIC50 in series [1] and in series [3] were 8.3 and 6.3, respectively. In series [8], the negative logarithm of the Kd (pKd) is reported as 8.5. Moreover, the Vd in [9] is 2.3 L/kg. Besides, in series [2], the solubility kinetic is not below 528 µM. Moreover, the figures for the CLH in [4] and in series [12] were 0.3 mL/min/g and 7.4 mL/min/g, respectively. Also, the half-life in series [11] was 30 min. This molecule also returned a chromatographic logD in [5] of 3.8. In series [13], this molecule registered a clearance of 4.14 L/h/kg. Besides, the Activity on Albumin was determined as 84%.
Consider `CCC[C@@H](NC(=O)c1cccc2c1CC(=O)N2)[C@@H](O)c1cccc(F)c1Cl`, for which the results for the pIC50 in [1] and in series [3] were 8.2 and 6.2, respectively. Moreover, the solubility kinetic in [2] was not below 504 µM. In series [4], the CLH is less than 0.4 mL/min/g. The molecule also registered a chromatographic logD in series [5] of 3.7.
Consider `CCC[C@@H](NC(=O)c1cccc2[nH]c(=O)oc12)[C@@H](O)c1cccc(Cl)c1C`, for which the results for the pIC50 in series [1] and in [3] were 8 and 5.4, respectively. For the same molecule, the solubility kinetic in series [2] turned out to be 326 µM (≈ 127 µg/mL). Further, the chromatographic logD in series [5] came to 5.1.
The corresponding values for `CCC[C@@H](NC(=O)c1ccc2oc(=O)[nH]c2c1)[C@@H](O)c1ccccc1` are 6.3, less than 4, 299 µM (≈ 102 µg/mL) and 3.2.
Take `CCC[C@@H](NC(=O)c1cccc2[nH]c(=O)ccc12)[C@@H](O)c1cccc(Cl)c1C`: the values for the pIC50 in series [1] and in series [3] were 7.7 and 4.8, respectively. In series [2], the solubility kinetic was 309 µM (≈ 123 µg/mL). The chromatographic logD in series [5] came to 3.7.
The corresponding values for `CCC[C@@H](NC(=O)c1cccc2c1CC(=O)N2)[C@@H](O)c1cccc(C)c1` are 8.1, 5.7, 19 µM (≈ 6.7 µg/mL) and 3.6.
The corresponding values for `CCC[C@@H](NC(=O)c1ccc2oc(=O)[nH]c2c1)[C@@H](O)c1ccccc1C` are 6.9, 4.3, not below 420 µM and 3.9.
As for `CCC[C@H](NC(=O)c1ccc2cc[nH]c2c1)[C@@H](O)c1ccccc1`, the pIC50 in series [1] stood at 4.1.
Regarding `CCC[C@@H](NC(=O)c1cccc2oc(=O)[nH]c12)[C@@H](O)c1cccc(Cl)c1C`, the pIC50 in series [1] amounted to 8.2; in series [3], 5.1. Further, the solubility kinetic in series [2] came out at 233 µM (≈ 90.6 µg/mL). Besides, in series [5], the chromatographic logD is 5.2.
For `CCC[C@@H](NC(=O)c1cccc2c1CC(=O)N2)[C@@H](O)c1ccncc1C` the same measures were 6.5, less than 4, 300 µM (≈ 106 µg/mL) and 1.6.
For the molecule `CCC[C@@H](NC(=O)c1ccnc2[nH]c(=O)[nH]c12)[C@@H](O)c1cccc(Cl)c1C`, the pIC50 is 8 in [1] and 5.5 in series [3]. The solubility kinetic in [2] stood at 200 µM (≈ 77.8 µg/mL). The chromatographic logD in series [5] is 3.9.
For `CCC[C@@H](NC(=O)c1cccc2c1CC(=O)N2)[C@@H](O)c1cccc(Cl)c1` the same measures were 8.4, 6, 52 µM (≈ 19.4 µg/mL) and 3.7.
Consider `CCC[C@@H](NC(=O)c1cccc2c1CC(=O)N2)[C@@H](O)c1ccccc1CC`, for which the pIC50 was determined as 8.3 in series [1] and 6 in series [3]. In series [2], the solubility kinetic is not below 316 µM. For the same molecule, the CLH in series [4] stood at 1.6 mL/min/g. Further, the chromatographic logD in series [5] was determined as 4.1.
The corresponding values for `CCC[C@@H](NC(=O)c1cccc2c1CC(=O)N2)[C@@H](O)c1cccc(Cl)c1C` are 8.6, 6.7, not below 450 µM, 0.4 mL/min/g and 4.3.
The corresponding values for `CCC[C@@H](NC(=O)c1cccc2c1CC(=O)N2)[C@@H](O)c1ccccc1OC` are 7.8, 5.1, not below 299 µM, less than 0.8 mL/min/g and 3.4.
Turning to `CCC[C@@H](NC(=O)c1cccc2c1CC(=O)N2)[C@@H](O)c1cnccc1C`, the values for the pIC50 in [1] and in [3] were 5.9 and less than 4, respectively. Also, the solubility kinetic in series [2] was not below 346 µM. The same molecule came in with a chromatographic logD in series [5] of 1.9.
For `CCC[C@@H](NC(=O)c1cccc2c1CC(=O)N2)[C@@H](O)c1cc(Cl)ccc1C` the same measures were 8.6, 5.3, not below 408 µM and 4.3.
Consider `CCC[C@@H](NC(=O)c1cccc2[nH]c(=O)[nH]c12)[C@@H](O)c1cccc(Cl)c1C`, for which the results for the negative logarithm of the IC50 (pIC50) in series [1] and in [3] were 8.5 and 6.5, respectively. Moreover, the solubility kinetic in [2] came out at 307 µM (≈ 119 µg/mL). Besides, the CLH in [4] turned out to be 1.8 mL/min/g. For the same molecule, in series [5], the chromatographic logD is 4.4.

Values taken from ChEMBL document CHEMBL4814010 (Bioorg Med Chem Lett, 2021).
